US10703757B2, “Compounds and methods for CDK8 modulation and indications therefor” (Plexxikon Inc., priority 2016, dated 2020)

Assays:
[1] = test system: CDK8 (TCF/LEF luciferase reporter in HCT116 cells); assay: Cell based TCF/LEF reporter assay (HCT116+TCF/LEF luciferase); settings: Homo sapiens
Method in brief: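 Luciferase readout was corrected for viability (CellTiter-Fluor) and scaled between DMSO high and 10 uM CCT251545 low controls, giving IC50 by nonlinear regression. Compounds, serially diluted, were incubated 24 h at 37 °C on HCT116 clones stably expressing a TCF/LEF-driven luciferase reporter.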

[2] = test system: CDK8 (phosphorylation of STAT1 at serine 727 in A549 cells); assay: Cell based Phospho-STAT1 assay (IFNγ-stimulated A549 cells, AlphaLISA); settings: Homo sapiens, phospho-STAT1 after IFNγ stimulation
Method in brief: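 A549 cells given serial compound dilutions for 1 h at 37 °C, then stimulated with IFNγ at 10 ng/mL final for 30 min. Lysate STAT1 Ser727 phosphorylation measured by AlphaLISA; % inhibition vs stimulated/unstimulated DMSO controls, IC50 by nonlinear regression.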

IC50 ([1]; HCT-116, 24 h) | IC50 ([2]; A549, A549 cells) | SMILES | IC50 ([1]; HCT-116, 24 hours) | IC50 ([2]; A549 cells)
100 to 1000 nM | 100 to 1000 nM | CNC(=O)c1ccc2cc(-c3cnc4[nH]ccc4c3N3CCC(F)(C#N)CC3)ccc2c1 [Compound P-0269, 6-(4-(4-cyano-4-fluoropiperidin-1-yl)-1H-pyrrolo[2,3-b]pyridin-5-yl)-N-methyl-2-naphthamide] |  | 
0.1 to 100 nM | 0.1 to 100 nM | N#CC1CC=C(c2c(-c3ccc(-c4cnn(C(F)F)c4)cc3)cnc3[nH]ccc23)CC1 (stereo not shown) [Compound P-0270, 4-(5-(4-(1-(difluoromethyl)-1H-pyrazol-4-yl)phenyl)-1H-pyrrolo[2,3-b]pyridin-4-yl)cyclohex-3-ene-1-carbonitrile] |  | 
100 to 1000 nM | 100 to 1000 nM | Cn1cc(-c2ccc(-c3cnc4cccc(C5=CCC(C(N)=O)CC5)n34)cc2)cn1 (stereo not shown) [Compound P-0416, 4-(3-(4-(1-methyl-1H-pyrazol-4-yl)phenyl)imidazo[1,2-a]pyridin-5-yl)cyclohex-3-ene-1-carboxamide] |  | 
 |  | N#CC1CCC(c2nccn3ncc(-c4ccc(N5CCOCC5)c(F)c4)c23)CC1 (stereo not shown) [Compound P-0101, 4-(3-(3-fluoro-4-morpholinophenyl)pyrazolo[1,5-a]pyrazin-4-yl)cyclohexane-1-carbonitrile] | 100 to 1000 nM | 0.1 to 100 nM
100 to 1000 nM | 100 to 1000 nM | Cn1cc(-c2ccc(-c3cnn4cccc(N5CCC(F)(C(N)=O)CC5)c34)cc2)cn1 [Compound P-0285, 4-fluoro-1-(3-(4-(1-methyl-1H-pyrazol-4-yl)phenyl)pyrazolo[1,5-a]pyridin-4-yl)piperidine-4-carboxamide] |  | 
0.1 to 100 nM | 0.1 to 100 nM | CC(C)(O)Cn1ncc2cc(-c3cnc4[nH]ccc4c3C3=CCC(C#N)CC3)ccc21 (stereo not shown) [Compound P-0113] |  | 
0.1 to 100 nM | 0.1 to 100 nM | CC(C)(O)C#Cc1cccn2ncc(-c3ccc(-c4cn[nH]c4)cc3)c12 [Compound P-0229, 4-(3-(4-(1H-pyrazol-4-yl)phenyl)pyrazolo[1,5-a]pyridin-4-yl)-2-methylbut-3-yn-2-ol] |  | 
100 to 1000 nM | 100 to 1000 nM | COc1ccc(-c2cnn3ccnc(C4=CCC(C#N)CC4)c23)cn1 (stereo not shown) [Compound P-0087, 4-(3-(6-methoxypyridin-3-yl)pyrazolo[1,5-a]pyrazin-4-yl)cyclohex-3-ene-1-carbonitrile] |  | 
0.1 to 100 nM | 0.1 to 100 nM | Cc1nc2ccc(-c3cnc4[nH]ccc4c3C3=CCC(C#N)CC3)cc2s1 (stereo not shown) [Compound P-0164, 4-(5-(2-methylbenzo[d]thiazol-6-yl)-1H-pyrrolo[2,3-b]pyridin-4-yl)cyclohex-3-ene-1-carbonitrile] |  | 
0.1 to 100 nM | 0.1 to 100 nM | CC(C)(C#Cc1cccn2ncc(-c3ccc(-c4cnn(CS(C)(=O)=O)c4)cc3)c12)C(N)=O [Compound P-0460, 2,2-dimethyl-4-(3-(4-(1-((methylsulfonyl)methyl)-1H-pyrazol-4-yl)phenyl)pyrazolo[1,5-a]pyridin-4-yl)but-3-ynamide] |  | 
0.1 to 100 nM | 0.1 to 100 nM | COc1ccc2cc(-c3cnc4[nH]ccc4c3C3=CCC(C#N)CC3)ccc2n1 (stereo not shown) [Compound P-0190, 4-(5-(2-methoxyquinolin-6-yl)-1H-pyrrolo[2,3-b]pyridin-4-yl)cyclohex-3-ene-1-carbonitrile] |  | 
0.1 to 100 nM | 0.1 to 100 nM | N#CC1CCN(c2c(-c3ccc(OCCOC4CCOCC4)cc3)cnc3[nH]ccc23)CC1 [Compound P-0171] |  | 
0.1 to 100 nM | 0.1 to 100 nM | CC(C)(C#Cc1nccn2ncc(-c3ccc(-c4cnn(CCC#N)c4)cc3)c12)C(N)=O [Compound P-0004, 4-(3-(4-(1-(2-cyanoethyl)-1H-pyrazol-4-yl)phenyl)pyrazolo[1,5-a]pyrazin-4-yl)-2,2-dimethylbut-3-ynamide] |  | 
100 to 1000 nM | 100 to 1000 nM | COc1ccc2cc(-c3cnn4ccnc(C#CC(C)(C)O)c34)ccc2n1 [Compound P-0198, 4-(3-(2-methoxyquinolin-6-yl)pyrazolo[1,5-a]pyrazin-4-yl)-2-methylbut-3-yn-2-ol] |  | 
